Experimental data reported in patent US11679107B2 (Eisai R&D Management Co., Ltd., priority 2018, dated 2023).
Read-outs that look alike come from different tables or passages of the source.

Experiments:
[1] = tested on: NCI-H1568 cells (high MCL1); experiment: Cell proliferation and viability, CellTiter-Glo, 72 hours; type: cell-based; details: for GI50: geometric mean
Method in brief: (§1)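 RPMI-1640/10% FBS (Panc: + insulin, FBS 15%); 11-pt half-log dose, ~10 μM-100 pM, 0.1% DMSO; 37° C, 5% CO2; ATP luminescence read; % inhibition vs T0 and vehicle, −100% cidal to 100% uninhibited growth.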

[2] = tested on: Panc 05.04 cells (SF3b K700E mutant); experiment: as above; type: cell-based; details: for GI50: geometric mean
Method in brief: as §1

SF3b complexes = target: T1, SF3b complexes (Homo sapiens, UniProt O75533+Q7RTV0); experiment: Scintillation proximity assay (SPA) with [3H]-labelled pladienolide probe; type: binding; details: SF3B1 (WT); geometric mean; read-out: SPA-ATS GMean IC50 (nM) SF3B1 (WT)
T1 construct: endogenous in cells; host or cells: Nuclear extracts; A HeLa S3 extract preparation is described for the in vitro splicing assay
Method in brief: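 SF3b complexes captured from nuclear extracts on anti-SF3B1 antibody SPA beads; test compounds pre-incubated 30 min before 2.5 nM [3H]-pladienolide probe added, then 30 min incubation. Bound probe read by scintillation; values from non-linear regression of concentration–response curves.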

[3] = tested on: Ad2 variant pre-mRNAs spliced in HeLa S3 nuclear extracts; experiment: In vitro splicing assay (IVS), RT-qPCR of spliced product; type: biochemical; details: for IC50: geometric mean; for Ratio Ad2.1/2.2: ratio of IVS IC50 Ad2.1 to Ad2.2
Method in brief: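 Read-out is one-step TaqMan RT-qPCR of spliced Ad2 mRNA with Ftz as reference, normalized to DMSO and fit by non-linear regression. Reactions held HeLa S3 nuclear extract, 2 ng Ad2-derived pre-mRNA and test compound, with 15 min preincubation. Splicing was started with ATP-containing activation buffer and run 90 min at 30 °C.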

[4] = NCI-H1568, read-out: CTGlo-ATS GMean GI50 (nM) 72 h NCIH1568.1, NCIH1568.1 cells, 72 h
[5] = NCIH1568.1 cells, 72 h, −100% cidal, 0% static, 100% maximal growth
[6] = PANC0504.1 cells, 72 h, −100% cidal, 0% static, 100% maximal growth
[7] = Panc 05.04, read-out: CTGlo-ATS GMean GI50 (nM) 72 h PANC0504.1, PANC0504.1 cells, 72 h
[8] = 72 h, NCIH1568.1, -100% = cidal, 0% = static, 100% = uninhibited growth
[9] = NCI-H1568, read-out: CTGlo-ATS GMean GI50 (nM) 72 h NCIH1568.1, 72 h, NCIH1568.1
[10] = NCI-H1568, 72 h, read-out: CTGlo-ATS GMean GI50 (nM) 72 h NCIH1568.1, NCIH1568.1 cells, 72 h
[11] = Ad2.1 pre-mRNA substrate, read-out: qPCR-IVS-ATS GMean IC50 (nM) Ad2.1
[12] = Ad2.2 pre-mRNA substrate, read-out: qPCR-IVS-ATS GMean IC50 (nM) Ad2.2

Row | GI50 ([2]; Panc 05.04, 72 h, read-out: CTGlo-ATS GMean GI50 (nM) 72 h PANC0504.1, PANC0504.1 cells, 72 h) | Compound | GI50 [1, 4] | CTGlo-ATS Mean MinResponse % 72 h NCIH1568.1 [1, 5] | CTGlo-ATS Mean MinResponse % 72 h PANC0504.1 [2, 6] | GI50 [2, 7] | IC50 (SF3b complexes) | CTGlo-ATS Mean MinResponse % 72 h NCIH1568.1 [1, 8] | GI50 [1, 9] | CTGlo-ATS Mean MinResponse % 72 h PANC0504.1 ([2]; 72 h, PANC0504.1, -100% = cidal, 0% = static, 100% = uninhibited growth) | GI50 ([2]; Panc 05.04, read-out: CTGlo-ATS GMean GI50 (nM) 72 h PANC0504.1, 72 h, PANC0504.1) | GI50 [1, 10] | IC50 [3, 11] | IC50 [3, 12] | Ratio Ad2.1/2.2 [3]
1 | – | C/C(=C\c1cc(F)cc(Cl)c1)[C@H]1OC(=O)C[C@H](O)CC[C@H](C)[C@@H](OC(=O)N2CCN(C)CC2)/C=C/[C@@H]1C [Compound 167] | 52.4 nM | −70.414% | −85.316% | 34.1 nM | 3.19 nM | – | – | – | – | – | – | – | –
2 | – | C/C(=C\c1cc(F)cc(N2CCN(S(=O)(=O)c3cn(C)cn3)CC2)c1)[C@H]1OC(=O)C[C@H](O)CC[C@H](C)[C@@H](OC(=O)N2CCN(C)CC2)/C=C/[C@@H]1C [Compound 113] | 41.8 nM | −73.107% | −80.966% | 49 nM | 8.2 nM | – | – | – | – | – | – | – | –
3 | – | C/C(=C\C1=CCCN(C(=O)OC(C)(C)C)C1)[C@H]1OC(=O)C[C@H](O)CC[C@H](C)[C@@H](OC(=O)N2CCN(C)CC2)/C=C/[C@@H]1C [Compound 219, [(2S,3S,4E,6R,7S,10R)-10-hydroxy-3,7-dimethyl-2-[(E)-1-[1-[(2-methylpropan-2-yl)oxycarbonyl]-3,6-dihydro-2H-pyridin-5-yl]prop-1-en-2-yl]-12-oxo-1-oxacyclododec-4-en-6-yl] 4-methylpiperazine-1-carboxylate] | – | – | – | – | 7.96 nM | −42.617% | 42.4 nM | −91.460% | 24.6 nM | – | – | – | –
4 | 5.85 nM | COCCN1CCN(c2cc(F)cc(/C=C(\C)[C@H]3OC(=O)C[C@H](O)CC[C@H](C)[C@@H](OC(=O)N4CCN(C)CC4)/C=C/[C@@H]3C)c2)CC1=O [Compound 105] | – | −68.464% | −90.949% | – | 2.87 nM | – | – | – | – | 6.95 nM | – | – | –
5 | – | C/C(=C\c1cc(F)cc(N(C)C2CCN(S(=O)(=O)c3cn(C)cn3)CC2)c1)[C@H]1OC(=O)C[C@H](O)CC[C@H](C)[C@@H](OC(=O)N2CCN(C)CC2)/C=C/[C@@H]1C [Compound 184] | 59.8 nM | −85.535% | – | – | 14.4 nM | – | – | – | – | – | 18.1 nM | 11.6 nM | –
6 | – | CC(=O)N1CCC(N(C)c2cc(F)cc(/C=C(\C)[C@H]3OC(=O)C[C@H](O)CC[C@H](C)[C@@H](OC(=O)N4CCN(C)CC4)/C=C/[C@@H]3C)c2)CC1 [Compound 177] | 3.62 nM | −80.643% | – | – | 2.38 nM | – | – | – | – | – | 18.2 nM | 10.3 nM | –
7 | – | C/C(=C\c1cc(F)cc(N(C)C2CCN(C(=O)c3cn(C)cn3)CC2)c1)[C@H]1OC(=O)C[C@H](O)CC[C@H](C)[C@@H](OC(=O)N2CCN(C)CC2)/C=C/[C@@H]1C [Compound 190] | 19.8 nM | −69.142% | – | – | 6.55 nM | – | – | – | – | – | 33.5 nM | 15.7 nM | –
8 | – | C/C(=C\c1cc(F)cc(N2CCN(C(=O)Cn3cccn3)CC2)c1)[C@H]1OC(=O)C[C@H](O)CC[C@H](C)[C@@H](OC(=O)N2CCN(CCO)CC2)/C=C/[C@@H]1C [Compound 234, [(2S,3S,4E,6R,7S,10R)-2-[(E)-1-[3-fluoro-5-[4-(2-pyrazol-1-ylacetyl)piperazin-1-yl]phenyl]prop-1-en-2-yl]-10-hydroxy-3,7-dimethyl-12-oxo-1-oxacyclododec-4-en-6-yl] 4-(2-hydroxyethyl)piperazine-1-carboxylate] | – | – | – | – | 3.16 nM | −81.384% | 5.2 nM | – | – | – | 13.1 nM | 16.5 nM | 0.793
9 | – | C/C(=C\c1cc(F)cc(OC2CCN(S(C)(=O)=O)CC2)c1)[C@H]1OC(=O)C[C@H](O)CC[C@H](C)[C@@H](OC(=O)N2CCN(C)CC2)/C=C/[C@@H]1C [Compound 194] | 6.73 nM | −75.631% | – | – | 10.7 nM | – | – | – | – | – | 30.1 nM | 25.9 nM | –
10 | – | C/C(=C\c1cc(F)c2nnn([C@H]3CCCOC3)c2c1)[C@H]1OC(=O)C[C@H](O)CC[C@H](C)[C@@H](OC(=O)N2CCN(C)CC2)/C=C/[C@@H]1C [Compound 162] | 1.47 nM | −75.943% | – | – | 1.08 nM | – | – | – | – | – | 9.29 nM | 7.4 nM | –
11 | – | C/C(=C\c1cc(F)cc(N2CCN(C(=O)Cn3cccn3)CC2)c1)[C@H]1OC(=O)C[C@H](O)CC[C@H](C)[C@@H](OC(=O)N2CCOCC2)/C=C/[C@@H]1C [Compound 223, [(2S,3S,4E,6R,7S,10R)-2-[(E)-1-[3-fluoro-5-[4-(2-pyrazol-1-ylacetyl)piperazin-1-yl]phenyl]prop-1-en-2-yl]-10-hydroxy-3,7-dimethyl-12-oxo-1-oxacyclododec-4-en-6-yl] morpholine-4-carboxylate] | – | – | – | – | 15.9 nM | −62.835% | 33.1 nM | – | – | – | 93.9 nM | 6.96 nM | 13.488
12 | – | C/C(=C\c1cc(F)c2nnn(C3CCN(C(=O)OC(C)(C)C)CC3)c2c1)[C@H]1OC(=O)C[C@H](O)CC[C@H](C)[C@@H](OC(=O)N2CCN(C)CC2)/C=C/[C@@H]1C [Compound 144] | 4.12 nM | −95.432% | – | – | 12.9 nM | – | – | – | – | – | 23 nM | 17.8 nM | –
13 | – | C/C(=C\c1cc(F)cc(N2CCN(C(=O)[C@H]3CCOC3)CC2)c1)[C@H]1OC(=O)C[C@H](O)CC[C@H](C)[C@@H](OC(=O)N2CCN(C)CC2)/C=C/[C@@H]1C [Compound 151] | – | −83.213% | – | – | 3.41 nM | – | – | – | – | 2.24 nM | 17.9 nM | 11.4 nM | –
14 | – | COCC(=O)N[C@H]1CCN(c2cc(F)cc(/C=C(\C)[C@H]3OC(=O)CC(O)CCC(C)[C@@H](OC(=O)N4CCN(C)CC4)/C=C/[C@@H]3C)c2)C1 (stereo in doubt) [Compound 218, [(2S,3S,4E,6R,7R,10S)-2-[(E)-1-[3-fluoro-5-[(3S)-3-[(2-methoxyacetyl)amino]pyrrolidin-1-yl]phenyl]prop-1-en-2-yl]-10-hydroxy-3,7-dimethyl-12-oxo-1-oxacyclododec-4-en-6-yl] 4-methylpiperazine-1-carboxylate] | – | – | – | – | 2.79 nM | −75.420% | 6.2 nM | – | – | – | 30.5 nM | 5.62 nM | 5.425
15 | – | C/C(=C\c1cc(F)c2nnn(C3(C)CCOCC3)c2c1)[C@H]1OC(=O)C[C@H](O)CC[C@H](C)[C@@H](OC(=O)N2CCN(C)CC2)/C=C/[C@@H]1C [Compound 156] | – | −87.369% | – | – | 3.95 nM | – | – | – | – | 1.27 nM | 8.37 nM | 7.91 nM | –
16 | – | C/C(=C\c1cc(F)cc(N2CCCNC2=O)c1)[C@H]1OC(=O)C[C@H](O)CC[C@H](C)[C@@H](OC(=O)N2CCN(C)CC2)/C=C/[C@@H]1C [Compound 79] | – | −72.802% | – | – | 2.14 nM | – | – | – | – | 4.01 nM | 18 nM | 12.3 nM | –
17 | – | C/C(=C\c1cc(F)cc(N(C)C2CCN(C(=O)C(F)(F)F)CC2)c1)[C@H]1OC(=O)C[C@H](O)CC[C@H](C)[C@@H](OC(=O)N2CCN(C)CC2)/C=C/[C@@H]1C [Compound 181] | 9.74 nM | −85.226% | – | – | 8.2 nM | – | – | – | – | – | 19.7 nM | 19.2 nM | –
